≈ marks a conversion by molar mass, not a printed value. Where only a bound is given, the exact number is not on record here.

For the data set the following is noted: buffer; pH 7.4; 200.0 µM.
In the case of `O=C(Nc1ccc2c(c1)OCO2)C1CC(=O)N(c2ccc3c(c2)OCCO3)C1` (stereo unspecified), the solubility (kinetic) (commonly the concentration staying in solution when a stock, usually in DMSO, is diluted into the medium) turned out to be 3.6 µg/mL (≈ 9.41 µM).

For the compound `O=C(NCc1cccc(Cl)c1)c1ccncc1`, the kinetic solubility is more than 37 µg/mL.

`CN(C(=O)C(Cl)Cl)C1CC2C=CC1C2` (stereo unspecified): the solubility (kinetic) amounted to 30.7 µg/mL (≈ 131 µM).

The compound `O=C1c2ccccc2NC(c2ccccc2O)N1O` (stereo unspecified) came in with a solubility (kinetic) of more than 38.4 µg/mL.

Take `CC1(c2ccccc2Cl)NC(=O)N(CC(=O)N2CCc3ccccc32)C1=O` (stereo unspecified): the solubility (kinetic) was found to be 10.1 µg/mL (≈ 26.3 µM).

With `Cc1ccccc1OCc1nc2ccccc2n1C`, the solubility (kinetic) was 3.1 µg/mL (≈ 12.3 µM).

In the case of `O=C(NCc1ccc(F)cc1)Nc1ccccc1`, the kinetic solubility is 9.3 µg/mL (≈ 38.1 µM).

With `O=S(=O)(Cc1cc(-c2ccccc2Cl)no1)c1ccccc1`, the solubility (kinetic) is 1.8 µg/mL (≈ 5.39 µM).

For `COc1ccccc1NC(=O)c1ccc([N+](=O)[O-])o1`, the kinetic solubility worked out at 36.8 µg/mL (≈ 140 µM). Against the preceding compound, the solubility kinetic is about 20-fold higher.

In turn, `O=C(CCN1C(=O)S/C(=C\c2ccccc2)C1=O)N1CCCCC1` returned a solubility (kinetic) of 20.6 µg/mL (≈ 59.8 µM).

Turning to `O=C(CNC(=O)C1CCCCC1)OCC(=O)c1ccc(F)cc1`, the kinetic solubility is more than 48.2 µg/mL.

`COc1ccc(C(=O)COC(=O)c2cccnc2SC)cc1` returned a kinetic solubility of less than 0.7 µg/mL.

In the case of `CC1=C([N+](=O)[O-])C(c2ccccc2Cl)NC(=O)N1` (stereo unspecified), the solubility (kinetic) was more than 40.2 µg/mL.

Consider `CCOC(=O)c1nc2c(=O)n(C)c(=O)n(C)c2n(C)c1=O`, for which the kinetic solubility is more than 44.1 µg/mL.

Take `COC(=O)c1ccc(S(=O)(=O)NCc2ccccn2)n1C`: the solubility (kinetic) was 39.6 µg/mL (≈ 128 µM).

On to `COC(=O)c1ccc(NC(=O)Cn2c([N+](=O)[O-])cnc2C)cc1`, for which the kinetic solubility is 28.8 µg/mL (≈ 90.5 µM).

Turning to `CCc1ccc(NC(=S)NCC2CCCN2CC)cc1` (stereo unspecified), the kinetic solubility was more than 43.7 µg/mL.

In turn, `CC(NCc1ccccc1O)c1ccccc1` (stereo unspecified) yielded a kinetic solubility of more than 34.1 µg/mL.

As to `CCN(C(=O)CSc1nc2ccc(C)cc2[nH]1)C1CCS(=O)(=O)C1` (stereo unspecified), the solubility (kinetic) was more than 55.1 µg/mL.

With `Cc1csc(SCC(=O)Nc2nncs2)n1`, the solubility (kinetic) is more than 40.9 µg/mL.

Consider `O=C1[C@@H]2C(c3cccnc3)=NO[C@@H]2C(=O)N1c1ccc2ccccc2c1`, for which the solubility (kinetic) amounted to 43 µg/mL (≈ 125 µM).

`Cc1nc(SCC(=O)NC2CCCC2)[nH]c(=O)c1C`: the solubility (kinetic) amounted to 38.4 µg/mL (≈ 136 µM). The solubility kinetic values of the last two compounds are within 1.5-fold of each other.

In turn, `CCOc1ccc(CN(C)CC(=O)Nc2cccc(C)c2)cc1OC` gave a solubility (kinetic) of more than 51.4 µg/mL.

In the case of `Oc1ccc(N2CCN(CC(O)c3ccccc3)CC2)cc1` (stereo unspecified), the solubility (kinetic) was more than 44.8 µg/mL.

`O=C(NCCc1ccccc1)c1ccccc1Cl` had a kinetic solubility of more than 39 µg/mL.

As for `COc1ccc(C(=O)Nc2ccc(-c3n[nH]c(=S)o3)cc2)cc1`, the solubility (kinetic) is more than 49.1 µg/mL.

On to `COC(=O)c1ccc(C[n+]2ccccc2)cc1.[Br-]`, for which the solubility (kinetic) is more than 46.2 µg/mL.

In turn, `Cn1c(N)c(C(=O)Nc2ccc(-c3ccccc3)cc2)sc1=S` registered a kinetic solubility of 0.6 µg/mL (≈ 1.76 µM).

Consider `Cn1c(=O)cc(Nc2ccc(Cl)cc2)[nH]c1=O`, for which the solubility (kinetic) was 8.7 µg/mL (≈ 34.6 µM). Against the preceding compound, the solubility kinetic is about 14-fold higher.

Regarding `Br.COc1ccccc1N1CCN(CCCCN2C(=O)c3ccccc3C2=O)CC1`, the kinetic solubility is more than 71.2 µg/mL.

`O=C(OCC(=O)N1CCc2ccccc21)c1ccccc1F`: the solubility (kinetic) was found to be 1.7 µg/mL (≈ 5.68 µM).

Compound `CCOC(=O)Cn1cc(C(=O)C(=O)N2CCOCC2)c2ccccc21` yielded a solubility (kinetic) of more than 51.7 µg/mL.

`CCS(=O)(=O)Nc1cccc(-c2nc3cccnc3s2)c1` displayed a solubility (kinetic) of 45.4 µg/mL (≈ 142 µM).

`O=C(COC(=O)c1ccccc1Oc1ccccc1)NC1CC1` yielded a kinetic solubility of more than 46.7 µg/mL.

In turn, `CC(=O)c1cccc(OCC(=O)OCC(=O)Nc2cc(S(=O)(=O)N3CCCCC3)ccc2C)c1` displayed a kinetic solubility of 61.5 µg/mL (≈ 126 µM).

As to `FC(F)(F)c1ccccc1-c1nc(-c2ccncc2)no1`, the kinetic solubility was determined as 7.6 µg/mL (≈ 26.1 µM).

Consider `Fc1ccccc1C1CCN(Cc2nc(COc3ccccc3)no2)C1` (stereo unspecified), for which the solubility (kinetic) came out at 12.7 µg/mL (≈ 35.9 µM).

Compound `Nc1cc(S(=O)(=O)N2CCOCC2)ccc1N1CCCCC1` came in with a kinetic solubility of 42.2 µg/mL (≈ 130 µM).

`O=C(CCCCCCCCN1C(=O)c2ccccc2C1=O)N1CCOCC1` yielded a solubility (kinetic) of 43.4 µg/mL (≈ 117 µM).

For the compound `O=C(Nc1ccc(Cl)cn1)c1ccc(Oc2ccccc2)cc1`, the kinetic solubility is less than 0.3 µg/mL.

`Cc1cc(C(=O)c2cnc(/N=C/N(C)C)s2)c(F)cc1Cl`: the kinetic solubility worked out at 13.6 µg/mL (≈ 41.7 µM).
